Reference: patent US20240366589A1, “NHE3-BINDING COMPOUNDS AND METHODS FOR INHIBITING PHOSPHATE TRANSPORT” (Ardelyx, Inc., priority 2013, published 2024)

How the values were obtained:
Rat NHE3 = molecular target: T1, Rat NHE3 (Rattus norvegicus, UniProt P26433); experiment: Cell-based NHE3 activity under prompt conditions (OK cells, BCECF pH recovery), rat NHE3; conditions: prompt conditions
T1 construct: expressed in transfected cells; host or cells: Opossum kidney (OK) cells (ATCC), electroporation
Summary of the method: (§1)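 OK cells electroporated with rat or human NHE3 gene, loaded 30 min at room temperature with 5 μM BCECF-AM in NH4Cl-HEPES pH 7.4.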

Human NHE3 = molecular target: T2, Human NHE3 (Homo sapiens, UniProt P48764); experiment: Cell-based NHE3 activity under prompt conditions (OK cells, BCECF pH recovery), human NHE3; conditions: prompt conditions
T2 construct: expressed in transfected cells; host or cells: Opossum kidney (OK) cells (ATCC), electroporation
T2 sequence (P48764 26-834): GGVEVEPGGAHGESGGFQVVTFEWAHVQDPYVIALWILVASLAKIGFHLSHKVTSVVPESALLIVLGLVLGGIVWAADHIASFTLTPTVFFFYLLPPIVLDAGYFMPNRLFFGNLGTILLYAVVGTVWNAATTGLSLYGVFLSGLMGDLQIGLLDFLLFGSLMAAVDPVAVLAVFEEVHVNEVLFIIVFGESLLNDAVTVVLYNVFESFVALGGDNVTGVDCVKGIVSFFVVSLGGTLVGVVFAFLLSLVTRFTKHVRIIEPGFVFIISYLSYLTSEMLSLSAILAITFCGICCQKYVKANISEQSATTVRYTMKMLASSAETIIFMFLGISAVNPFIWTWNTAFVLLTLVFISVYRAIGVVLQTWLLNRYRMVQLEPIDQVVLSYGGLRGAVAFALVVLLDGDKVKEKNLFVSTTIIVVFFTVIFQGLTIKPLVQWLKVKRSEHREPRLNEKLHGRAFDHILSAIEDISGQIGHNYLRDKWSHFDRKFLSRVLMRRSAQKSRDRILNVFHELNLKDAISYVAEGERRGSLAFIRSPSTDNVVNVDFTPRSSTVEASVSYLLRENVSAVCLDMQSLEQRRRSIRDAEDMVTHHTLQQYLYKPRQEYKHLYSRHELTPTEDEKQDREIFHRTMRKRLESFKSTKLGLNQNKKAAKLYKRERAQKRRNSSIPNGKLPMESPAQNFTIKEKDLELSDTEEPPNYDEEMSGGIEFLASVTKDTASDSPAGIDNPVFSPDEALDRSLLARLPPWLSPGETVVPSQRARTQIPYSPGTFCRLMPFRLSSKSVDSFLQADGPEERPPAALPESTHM
Summary of the method: as §1

[1] = tested on: absorption of sodium from the intestinal lumen; experiment: Inhibition of intestinal sodium absorption: urinary sodium (uNa) 16 h after single oral dose in rats; type: in vivo, rat; conditions: oral gavage, 16 h post-dose
Summary of the method: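 Eight-week-old Sprague-Dawley rats (n=6) given single oral gavage of compound or water vehicle in the late afternoon, then kept in metabolic cages with chow and water ad libitum. Urine collected over 16 h; sodium quantified by ion chromatography and expressed as % of vehicle mean, compared by one-way ANOVA with Dunnett's test.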

[2] = tested on: absorption of sodium from the intestinal lumen; experiment: Fecal form score (FFS) 16 h after oral dose in rats; type: in vivo, rat; conditions: oral gavage, 16 h post-dose, scale 1-5
Summary of the method: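 Eight-week-old Sprague-Dawley rats (n=6) dosed by oral gavage with compound or water vehicle between 4 and 5 PM, then housed in metabolic cages with food and water ad libitum. At 16 h, fecal form scored 1 (normal pellet) to 5 (liquid streams) by two observers; group mean reported.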

[3] = tested on: phosphorus and calcium levels in the urine of rats; experiment: Urinary excretion of phosphate and calcium in rats (16 h overnight urine); type: in vivo, rat; conditions: rats, oral gavage, 16 h post-dose

T1 sequence (P26433 29-831): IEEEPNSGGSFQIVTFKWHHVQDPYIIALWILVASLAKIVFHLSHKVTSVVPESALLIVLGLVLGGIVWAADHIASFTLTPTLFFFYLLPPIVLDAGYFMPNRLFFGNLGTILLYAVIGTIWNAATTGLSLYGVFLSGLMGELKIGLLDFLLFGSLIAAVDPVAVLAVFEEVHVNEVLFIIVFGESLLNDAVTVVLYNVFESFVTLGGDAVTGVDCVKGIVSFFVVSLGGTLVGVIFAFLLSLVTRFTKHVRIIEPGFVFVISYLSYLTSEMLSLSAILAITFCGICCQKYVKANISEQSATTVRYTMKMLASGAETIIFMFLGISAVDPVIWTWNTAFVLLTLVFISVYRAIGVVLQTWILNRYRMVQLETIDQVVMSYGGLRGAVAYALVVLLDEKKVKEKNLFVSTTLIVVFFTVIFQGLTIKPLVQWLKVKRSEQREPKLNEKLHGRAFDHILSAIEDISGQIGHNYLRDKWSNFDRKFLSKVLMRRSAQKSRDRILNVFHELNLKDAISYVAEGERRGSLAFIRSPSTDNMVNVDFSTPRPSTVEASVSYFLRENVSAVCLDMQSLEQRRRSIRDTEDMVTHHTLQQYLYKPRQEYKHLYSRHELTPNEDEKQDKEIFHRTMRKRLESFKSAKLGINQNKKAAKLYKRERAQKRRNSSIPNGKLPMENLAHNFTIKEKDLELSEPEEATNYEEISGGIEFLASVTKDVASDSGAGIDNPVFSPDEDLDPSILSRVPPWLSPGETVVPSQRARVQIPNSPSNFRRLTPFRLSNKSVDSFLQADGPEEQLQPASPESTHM

CN1Cc2c(Cl)cc(Cl)cc2[C@H](c2cccc(S(=O)(=O)NCCOCCOCCOCCNC(=O)CC(O)(CC(=O)NCCOCCOCCOCCNS(=O)(=O)c3cccc([C@@H]4CN(C)Cc5c(Cl)cc(Cl)cc54)c3)C(=O)NCCOCCOCCOCCNS(=O)(=O)c3cccc([C@@H]4CN(C)Cc5c(Cl)cc(Cl)cc54)c3)c2)C1 [compound 61]
Prompt Rat NHE3 pIC50 (Rat NHE3): 7.00 | Prompt Human NHE3 pIC50 (Human NHE3): 7.80 | Urine Na % of control ([1]; dose 1 mg/kg): 93% | Urine Na % of control ([1]; dose 3 mg/kg): 50% | Urine Na % of control ([1]; dose 10 mg/kg): 21% | Fecal Form Score average ([2]; dose 1 mg/kg): 1 | Fecal Form Score average ([2]; dose 3 mg/kg): 1 | Fecal Form Score average ([2]; dose 10 mg/kg): 3 | Urine P % of control ([3]; dose 1 mg/kg): 96% | Urine P % of control ([3]; dose 3 mg/kg): 70% | Urine P % of control ([3]; dose 10 mg/kg): 67%

C/C(=C\c1cc(F)c(Oc2ccc(S(=O)(=O)NCCOCCOCCOCCNC(=O)NCCOCCOCCNC(=O)NCCOCCOCCOCCNS(=O)(=O)c3ccc(Oc4c(F)cc(/C=C(\C)C(=O)N=C(N)N)cc4F)cc3)cc2)c(F)c1)C(=O)N=C(N)N [compound 14]
Prompt Rat NHE3 pIC50 (Rat NHE3): 7.00 | Prompt Human NHE3 pIC50 (Human NHE3): 7.60 | Urine Na % of control ([1]; dose 10 mg/kg): 51% | Fecal Form Score average ([2]; dose 10 mg/kg): 1 | Urine P % of control ([3]; dose 10 mg/kg): 59%

O=C(O)CN(CCN(CC(=O)O)CC(=O)NCCOCCOCCOCCNS(=O)(=O)c1ccc(OC2c3ccccc3CC2N2CCCCC2)cc1)CC(=O)NCCOCCOCCOCCNS(=O)(=O)c1ccc(OC2c3ccccc3CC2N2CCCCC2)cc1 (stereo not shown) [compound 49]
Prompt Rat NHE3 pIC50 (Rat NHE3): 7.65 | Prompt Human NHE3 pIC50 (Human NHE3): 7.40 | Urine Na % of control ([1]; dose 10 mg/kg): 38% | Fecal Form Score average ([2]; dose 10 mg/kg): 1 | Urine P % of control ([3]; dose 10 mg/kg): 77%

CN1Cc2c(Cl)cc(Cl)cc2[C@H](c2cccc(S(=O)(=O)NCCOCCOCCNC(=O)CCC(CCC(=O)NCCOCCOCCNS(=O)(=O)c3cccc([C@@H]4CN(C)Cc5c(Cl)cc(Cl)cc54)c3)(CCC(=O)NCCOCCOCCNS(=O)(=O)c3cccc([C@@H]4CN(C)Cc5c(Cl)cc(Cl)cc54)c3)NC(=O)CCC(=O)O)c2)C1 [compound 123]
Prompt Rat NHE3 pIC50 (Rat NHE3): 7.50 | Prompt Human NHE3 pIC50 (Human NHE3): 7.80 | Urine Na % of control ([1]; dose 1 mg/kg): 49% | Urine Na % of control ([1]; dose 3 mg/kg): 12% | Fecal Form Score average ([2]; dose 1 mg/kg): 1 | Fecal Form Score average ([2]; dose 3 mg/kg): 3 | Urine P % of control ([3]; dose 1 mg/kg): 124% | Urine P % of control ([3]; dose 3 mg/kg): 88%

CN1Cc2c(Cl)cc(Cl)cc2[C@H](c2cccc(S(=O)(=O)NCCOCCOCCNC(=O)NCCC(N)(CCNC(=O)NCCOCCOCCNS(=O)(=O)c3cccc([C@@H]4CN(C)Cc5c(Cl)cc(Cl)cc54)c3)CCNC(=O)NCCOCCOCCNS(=O)(=O)c3cccc([C@@H]4CN(C)Cc5c(Cl)cc(Cl)cc54)c3)c2)C1 [compound 168]
Prompt Rat NHE3 pIC50 (Rat NHE3): 7.35 | Prompt Human NHE3 pIC50 (Human NHE3): 8.13 | Urine Na % of control ([1]; dose 3 mg/kg): 56% | Fecal Form Score average ([2]; dose 3 mg/kg): 1 | Urine P % of control ([3]; dose 3 mg/kg): 50%

CN1Cc2c(Cl)cc(Cl)cc2[C@H](c2cccc(S(=O)(=O)N(C)CCOCCOCCNC(=O)CCN(CCC(=O)NCCOCCOCCN(C)S(=O)(=O)c3cccc([C@@H]4CN(C)Cc5c(Cl)cc(Cl)cc54)c3)CCC(=O)NCCOCCOCCN(C)S(=O)(=O)c3cccc([C@@H]4CN(C)Cc5c(Cl)cc(Cl)cc54)c3)c2)C1 [compound 134]
Prompt Rat NHE3 pIC50 (Rat NHE3): 6.50 | Prompt Human NHE3 pIC50 (Human NHE3): 6.50 | Urine Na % of control ([1]; dose 3 mg/kg): 64% | Fecal Form Score average ([2]; dose 3 mg/kg): 1 | Urine P % of control ([3]; dose 3 mg/kg): 72%

CN1Cc2c(Cl)cc(Cl)cc2[C@H](c2cccc(S(=O)(=O)NCCOCCOCCNC(=O)CC(O)(CC(=O)NCCOCCOCCNS(=O)(=O)c3cccc([C@@H]4CN(C)Cc5c(Cl)cc(Cl)cc54)c3)C(=O)NCCOCCOCCNS(=O)(=O)c3cccc([C@@H]4CN(C)Cc5c(Cl)cc(Cl)cc54)c3)c2)C1 [compound 78]
Prompt Rat NHE3 pIC50 (Rat NHE3): 6.00 | Prompt Human NHE3 pIC50 (Human NHE3): 6.50 | Urine Na % of control ([1]; dose 10 mg/kg): 53% | Fecal Form Score average ([2]; dose 10 mg/kg): 2 | Urine P % of control ([3]; dose 10 mg/kg): 39%

C/C(=C\c1cc(F)c(Oc2ccc(S(=O)(=O)NCCOCCOCCOCCNC(=O)NCCCCNC(=O)NCCOCCOCCOCCNS(=O)(=O)c3ccc(Oc4c(F)cc(/C=C(\C)C(=O)N=C(N)N)cc4F)cc3)cc2)c(F)c1)C(=O)N=C(N)N [compound 29]
Prompt Rat NHE3 pIC50 (Rat NHE3): 7.50 | Prompt Human NHE3 pIC50 (Human NHE3): 8.10 | Urine Na % of control ([1]; dose 10 mg/kg): 92% | Fecal Form Score average ([2]; dose 10 mg/kg): 1 | Urine P % of control ([3]; dose 10 mg/kg): 102%

CN1Cc2c(Cl)cc(Cl)cc2[C@H](c2cccc(S(=O)(=O)NCCOCCOCCNC(=O)CCC(CCC(=O)NCCOCCOCCNS(=O)(=O)c3cccc([C@@H]4CN(C)Cc5c(Cl)cc(Cl)cc54)c3)(CCC(=O)NCCOCCOCCNS(=O)(=O)c3cccc([C@@H]4CN(C)Cc5c(Cl)cc(Cl)cc54)c3)NC(=O)NCC(=O)O)c2)C1 [compound 164]
Prompt Rat NHE3 pIC50 (Rat NHE3): 7.53 | Prompt Human NHE3 pIC50 (Human NHE3): 8.13 | Urine Na % of control ([1]; dose 3 mg/kg): 18% | Fecal Form Score average ([2]; dose 3 mg/kg): 3 | Urine P % of control ([3]; dose 3 mg/kg): 63%

C/C(=C\c1cc(F)c(Oc2ccc(S(=O)(=O)NCCOCCOCCOCCNC(=O)CN(C)CC(=O)NCCOCCOCCOCCNS(=O)(=O)c3ccc(Oc4c(F)cc(/C=C(\C)C(=O)N=C(N)N)cc4F)cc3)cc2)c(F)c1)C(=O)N=C(N)N [compound 9]
Prompt Rat NHE3 pIC50 (Rat NHE3): 6.50 | Prompt Human NHE3 pIC50 (Human NHE3): 7.10 | Urine Na % of control ([1]; dose 10 mg/kg): 56% | Fecal Form Score average ([2]; dose 10 mg/kg): 1 | Urine P % of control ([3]; dose 10 mg/kg): 77%

CN1Cc2c(Cl)cc(Cl)cc2[C@H](c2cccc(S(=O)(=O)N(CCO)CCOCCOCCNC(=O)NCCCN(CCCNC(=O)NCCOCCOCCN(CCO)S(=O)(=O)c3cccc([C@@H]4CN(C)Cc5c(Cl)cc(Cl)cc54)c3)CCCNC(=O)NCCOCCOCCN(CCO)S(=O)(=O)c3cccc([C@@H]4CN(C)Cc5c(Cl)cc(Cl)cc54)c3)c2)C1 [compound 146]
Prompt Rat NHE3 pIC50 (Rat NHE3): 7.80 | Prompt Human NHE3 pIC50 (Human NHE3): 8.35 | Urine Na % of control ([1]; dose 3 mg/kg): 70% | Fecal Form Score average ([2]; dose 3 mg/kg): 2 | Urine P % of control ([3]; dose 3 mg/kg): 58%

CN1Cc2c(Cl)cc(Cl)cc2[C@H](c2cccc(S(=O)(=O)NCCOCCOCCNC(=O)CCC(CCC(=O)NCCOCCOCCNS(=O)(=O)c3cccc([C@@H]4CN(C)Cc5c(Cl)cc(Cl)cc54)c3)(CCC(=O)NCCOCCOCCNS(=O)(=O)c3cccc([C@@H]4CN(C)Cc5c(Cl)cc(Cl)cc54)c3)NC(=O)N[C@@H](CO)C(=O)O)c2)C1 [compound 163]
Prompt Rat NHE3 pIC50 (Rat NHE3): 7.90 | Prompt Human NHE3 pIC50 (Human NHE3): 7.60 | Urine Na % of control ([1]; dose 3 mg/kg): 27% | Fecal Form Score average ([2]; dose 3 mg/kg): 2 | Urine P % of control ([3]; dose 3 mg/kg): 48%

N=C(N)Nc1nc(-c2ccc(N3CCN(CCOCCOCCOCCNC(=O)NCCOCCOCCNC(=O)NCCOCCOCCOCCN4CCN(c5ccc(-c6nc(NC(=N)N)nc7ccc(Cl)cc67)cc5)CC4)CC3)cc2)c2cc(Cl)ccc2n1 [compound 20]
Prompt Rat NHE3 pIC50 (Rat NHE3): 7.30 | Prompt Human NHE3 pIC50 (Human NHE3): 7.20 | Urine Na % of control ([1]; dose 10 mg/kg): 86% | Fecal Form Score average ([2]; dose 10 mg/kg): 1 | Urine P % of control ([3]; dose 10 mg/kg): 81%

CN1Cc2c(Cl)cc(Cl)cc2[C@H](c2cccc(S(=O)(=O)NCCOCCOCCOCCNC(=O)CN(CC(=O)NCCOCCOCCOCCNS(=O)(=O)c3cccc([C@@H]4CN(C)Cc5c(Cl)cc(Cl)cc54)c3)CC(=O)NCCOCCOCCOCCNS(=O)(=O)c3cccc([C@@H]4CN(C)Cc5c(Cl)cc(Cl)cc54)c3)c2)C1 [compound 57]
Prompt Rat NHE3 pIC50 (Rat NHE3): 7.10 | Prompt Human NHE3 pIC50 (Human NHE3): 7.50 | Urine Na % of control ([1]; dose 10 mg/kg): 25% | Fecal Form Score average ([2]; dose 10 mg/kg): 3 | Urine P % of control ([3]; dose 10 mg/kg): 75%
